Values of other authors as cited in patent publication US9220759B2, “Treatment of diabetic patients with a drug eluting stent and adjunctive therapy” (Abbott Cardiovascular Systems Inc., priority 2012, dated 2015).

System: restenosis after bare metal stent implantation
Details: diabetic patients prescribed the drug, compared to the control group, study of limited size

## CN(CCOc1ccc(CC2SC(=O)NC2=O)cc1)c1ccccn1 (stereo not shown) [rosiglitzone, rosiglitazone]
  rate of restenosis: reduction in the rate of restenosis
